Tests used:
Type in all cases: cell-based
[1] = tested on: human hepatocellular carcinoma Huh 7; assay: Cell morphology observation under phase contrast microscope, Huh 7; conditions: 48 h, Bortezomib 5 nM, M1 virus 0.1 moi, FIG. 1
Method: (§1) a) Cell culture: human hepatocellular carcinoma Hep3B and Huh 7 were grown in DMEM complete medium containing 10% FBS, 100 U/ml penicillin and 0.1 mg/ml streptomycin; all cell strains were cultured and passaged in a closed incubator at a constant temperature of 37° C. (95% relative humidity) with 5% CO2, and the growth was observed under inverted microscope. The cells were passaged about every 2 to 3 days, and the cells in the logarithmic phase were used in the formal experiment.
(§2) b) Cell treatment and morphological observation: cells in the logarithmic growth phase and the DMEM complete culture medium (containing 10% fetal bovine serum and 1% double antibody) were selected to prepare cell suspension, and the cells were inoculated in a 24-well culture plate at a density of 2.5×10^4/well.

[2] = tested on: human hepatocellular carcinoma Hep3B; assay: Cell morphology observation under phase contrast microscope, Hep3B; conditions: 48 h, Bortezomib 5 nM, M1 virus 0.001 moi, FIG. 1
Method: as §1, §2

[3] = tested on: human hepatocellular carcinoma Huh 7; assay: MTT cell viability, Bortezomib and M1 virus, 48 h; conditions: Huh-7, 48 h, read-out: relative cell viability of tumor cells
Method: (§3) a) Inoculating cells, and drug administering treatment: cells in the logarithmic growth phase and the DMEM complete culture medium (containing 10% fetal bovine serum and 1% double antibody) were selected to prepare cell suspension, and were inoculated in a 96-well culture plate at a density of 4×10^3/well. 12 h later, the cells were completely adhered to the wall. The cells were divided into control group without medicament nor virus treatment, Bortezomib treatment group, M1 infection group and Bortezomib/M1 combined group.
b) MTT reacted with intracellular succinate dehydrogenase: after culturing for 48 h, 20 μl (5 mg/ml) of MTT was added to each well and incubated for 4 h, at this time, the granular bluish violet formazan crystals formed in living cells could be observed under microscope.
(§4) c) Dissolving formazan granules: the supernatant was carefully removed, DMSO 100 μl/well was added to dissolve the crystal, shaked in a microoscillator for 5 min, and then detect the optical density (OD value) of each well with wavelength of 570 nm on the enzyme-linked detector. The experiment was repeated for 3 times in each group. Cell viability=OD value of medicament treatment group/OD value of control group×100%.
The EC50 shift of the two curves was calculated, that is, the EC50 shift in FIG. 2, the larger the difference value was, the more significant the medicament synergized.

[4] = tested on: human hepatocellular carcinoma Huh 7; assay: MTT cell viability, various proteasome inhibitors and M1 virus, 72 h
Method: as §3, with “proteasome inhibitor group (including CEP-18770, MLN-9708, ONX-0912),” for “Bortezomib treatment group,”, “infected” for “infection”, “proteasome inhibitor/M1” for “Bortezomib/M1”
b) MTT reacted with intracellular succinate dehydrogenase: after culturing for 72 h, 20 μl (5 mg/ml) of MTT was added to each well and incubated for 4 h, at this time, the granular bluish violet formazan crystals formed in living cells could be observed under microscope.
as §4, with “vibrate” for “shaked”, “detector.” for “detector. The experiment was repeated for 3 times in each group.”, “group x 100%.” for “group×100%.”

[5] = Homo sapiens, Huh-7, 72 h, read-out: relative cell viability of tumor cells

## CC(C)C[C@H](NC(=O)[C@H](Cc1ccccc1)NC(=O)c1cnccn1)B(O)O [Bortezomib]
[1]
  morphological changes of cells: no significant change in cell morphology
[2]
  morphological changes of cells: no significant change in cell morphology
[3]
  viability at 0.005 µM: 99.7%

## COC[C@H](NC(=O)c1cnc(C)s1)C(=O)N[C@@H](COC)C(=O)N[C@@H](Cc1ccccc1)C(=O)[C@@]1(C)CO1 [ONX-0912, Oprozomib]
[4]; [5]
  viability at 0.05 µM: 70%

## Ixazomib [MLN-9708]
[4]; FIG. 4B, Huh 7, MTT, 72 h, MLN-9708 5 nM, M1 virus MOI=0.1
  relative cell viability of tumor cells: 77.7%

## CC(C)C[C@H](NC(=O)[C@@H](NC(=O)c1cccc(-c2ccccc2)n1)[C@@H](C)O)B(O)O [CEP-18770, Delanzomib]
[4]; [5]
  viability at 0.005 µM: 105%

From US20210228660A1, “USE OF PROTEASOME INHIBITOR AND […] PREPARATION OF ANTI-TUMOR MEDICAMENT” (GUANGZHOU VIROTECH PHARMACEUTICAL CO., LTD., priority 2018, published 2021)
